Data: PMC8467340, “Fine Tuning of Cholinesterase and Glutathione-S-Transferase Activities by Organoruthenium(II) Complexes” (Biomedicines, 2021)
Where two headings read alike, the source gives them in different places.

Tests used:
horse liver GST (hlGST) [1] = settings: previously reported, cited from earlier work; for IC50: read-out: Enzyme Inhibition hlGST IC50
[2] = molecular target: T1, horse serum BChE (hsBChE) (Equus caballus, UniProt P81908); settings: previously reported; read-out: Enzyme Inhibition hsBChE IC50; cited from earlier work
T1 construct: horse serum BChE (hsBChE); purchased Sigma-Aldrich; host or cells: horse serum
T1 sequence (P81908 whole entry): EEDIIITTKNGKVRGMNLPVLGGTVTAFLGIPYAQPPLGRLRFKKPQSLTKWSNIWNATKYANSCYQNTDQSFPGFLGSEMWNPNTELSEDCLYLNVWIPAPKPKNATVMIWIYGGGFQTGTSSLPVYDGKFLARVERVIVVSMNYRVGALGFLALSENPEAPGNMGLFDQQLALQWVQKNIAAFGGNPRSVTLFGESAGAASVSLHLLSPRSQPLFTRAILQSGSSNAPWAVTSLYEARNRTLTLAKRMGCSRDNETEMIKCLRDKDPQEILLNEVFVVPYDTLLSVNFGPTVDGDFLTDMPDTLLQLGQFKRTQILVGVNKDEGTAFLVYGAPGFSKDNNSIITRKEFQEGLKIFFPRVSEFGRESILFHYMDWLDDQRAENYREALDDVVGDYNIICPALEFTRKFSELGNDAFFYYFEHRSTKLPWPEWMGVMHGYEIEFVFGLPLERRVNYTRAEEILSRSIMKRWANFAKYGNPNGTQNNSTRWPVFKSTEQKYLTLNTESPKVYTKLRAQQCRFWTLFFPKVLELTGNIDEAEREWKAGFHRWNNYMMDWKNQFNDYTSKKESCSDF

[3] = molecular target: T2, electric eel AChE (eeAChE) (Electrophorus electricus, UniProt O42275); settings: previously reported; read-out: Enzyme Inhibition eeAChE IC50; cited from earlier work
T2 construct: purchased Sigma-Aldrich
T2 sequence (O42275 24-633): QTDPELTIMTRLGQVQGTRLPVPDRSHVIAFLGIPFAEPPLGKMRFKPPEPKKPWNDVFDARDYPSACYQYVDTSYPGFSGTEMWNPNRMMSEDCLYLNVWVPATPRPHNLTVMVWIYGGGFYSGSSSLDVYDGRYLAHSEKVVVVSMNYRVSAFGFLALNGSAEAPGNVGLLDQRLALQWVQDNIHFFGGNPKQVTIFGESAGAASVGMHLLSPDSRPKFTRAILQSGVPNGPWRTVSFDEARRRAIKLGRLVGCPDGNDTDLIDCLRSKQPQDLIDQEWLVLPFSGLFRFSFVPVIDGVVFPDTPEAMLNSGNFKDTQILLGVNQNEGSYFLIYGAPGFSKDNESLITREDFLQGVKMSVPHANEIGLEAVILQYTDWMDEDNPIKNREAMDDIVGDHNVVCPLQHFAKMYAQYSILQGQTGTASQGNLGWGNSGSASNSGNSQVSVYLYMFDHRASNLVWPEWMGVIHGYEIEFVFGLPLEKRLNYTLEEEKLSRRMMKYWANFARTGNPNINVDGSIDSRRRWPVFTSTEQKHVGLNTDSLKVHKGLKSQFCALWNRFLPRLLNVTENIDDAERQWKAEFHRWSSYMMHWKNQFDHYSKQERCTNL

[4] = molecular target: T3, human placenta GST (hGST) (Homo sapiens, UniProt P09211); settings: previously reported; read-out: Enzyme Inhibition hGST IC50; cited from earlier work
T3 construct: human placenta GST (hGST); purchased Sigma-Aldrich; host or cells: human placenta
T3 sequence (P09211 2-210 limits assumed): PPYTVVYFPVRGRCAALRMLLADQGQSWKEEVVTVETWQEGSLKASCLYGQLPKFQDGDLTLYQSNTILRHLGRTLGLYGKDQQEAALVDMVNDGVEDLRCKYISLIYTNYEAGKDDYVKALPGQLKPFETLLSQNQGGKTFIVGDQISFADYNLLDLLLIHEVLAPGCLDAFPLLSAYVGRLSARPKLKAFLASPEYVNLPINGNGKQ

horse liver GST (hlGST) [5] = assay: Glutathione S-transferase inhibition assay (Habig method), hlGST; type: biochemical; settings: for IC50: mean ± SEM of three independent measurements, / = No activity, read-out: Enzyme Inhibition hlGST IC50; for type of inhibition of hlGST: Dixon plots; for Ki: determined for compounds with IC50 < 33 μM, substrate 200, 400, 800 μM, read-out: Enzyme Inhibition hlGST Ki
Procedure: (§1) The activities of the GSTs were determined according to the method described by Habig et al. (1974) using a cell imaging multi-mode reader (Cytation 3; BioTek, Winooski, VT, USA). The stock solutions of inhibitors were prepared as described for the ChE inhibition assays. Then the stock solutions of the potential inhibitors and negative controls were added to the wells, and progressively diluted in 100 mM sodium phosphate buffer (pH 6.5) to the final volume of 50 μL. 1-Chloro-2,4-dinitrobenzene (Sigma-Aldrich, St. Louis, MO, USA) was dissolved in ethanol to 50 mM, and then diluted with 100 mM sodium phosphate buffer (pH 6.5) to a final concentration of 4 mM. This solution (50 μL) and 2 mM reduced glutathione (100 μL) in the same buffer were added into the microtiter plate wells. Two GSTs were used as the enzyme sources: horse liver GST (hlGST) and human placenta GST (hGST) (Sigma-Aldrich, St. Louis, MO, USA). These were dissolved in 100 mM sodium phosphate buffer (pH 6.5), and 50 μL of these enzyme solutions were added into the wells to start the reaction. The final enzyme concentration was 0.044 U/mL. The blank reactions without the inhibitors were run with the appropriate dilutions of the solvents in which the tested compounds were initially diluted (100% MeOH or 5% aqueous DMSO), and the readings were corrected according to the appropriate blanks. The reactions were followed spectrophotometrically at 340 nm at 25 °C over 4 min. Each measurement was repeated at least three times. […] The data were analysed using the OriginPro software (OriginPro 2020, OriginLab Corporation, Northampton, MA, USA).

[6] = molecular target: T4, human recombinant AChE (hrAChE) (Homo sapiens, UniProt P22303); assay: Cholinesterase inhibition assay (modified Ellman method), hrAChE; type: biochemical; settings: for IC50: mean ± SEM of three independent measurements, / = No activity, read-out: Enzyme Inhibition hrAChE IC50; for type of inhibition of hrAChE: Dixon plots
T4 construct: purchased Sigma-Aldrich
T4 sequence (P22303 32-614): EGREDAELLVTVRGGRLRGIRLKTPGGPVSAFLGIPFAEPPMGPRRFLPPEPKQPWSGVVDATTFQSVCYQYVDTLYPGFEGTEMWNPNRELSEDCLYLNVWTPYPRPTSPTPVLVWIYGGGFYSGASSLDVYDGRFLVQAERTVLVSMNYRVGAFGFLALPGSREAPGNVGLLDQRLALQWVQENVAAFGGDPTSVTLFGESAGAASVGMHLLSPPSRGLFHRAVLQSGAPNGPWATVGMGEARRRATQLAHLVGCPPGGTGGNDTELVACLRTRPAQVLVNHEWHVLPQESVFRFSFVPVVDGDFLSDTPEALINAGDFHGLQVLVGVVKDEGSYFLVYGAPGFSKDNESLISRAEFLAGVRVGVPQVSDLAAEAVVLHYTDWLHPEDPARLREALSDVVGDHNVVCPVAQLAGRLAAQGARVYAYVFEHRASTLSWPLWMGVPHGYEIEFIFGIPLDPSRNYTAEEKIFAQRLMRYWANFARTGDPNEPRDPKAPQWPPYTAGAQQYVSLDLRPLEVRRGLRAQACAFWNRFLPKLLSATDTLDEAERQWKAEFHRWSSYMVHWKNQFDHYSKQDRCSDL
Procedure: (§2) The activities of the ChEs were determined using a modification of the Ellman method adapted for microtiter plates, as described in [47]. Stock solutions of complexes 4, 5, 6, 7, 8 and 10, as well as of ligands L2 and L3 (1 mg/mL) were prepared in 100% MeOH, whereas stock solutions of complexes 2 and 3 (1 mg/mL) were prepared in 5% DMSO in deionised water. Positive control (1 mg/mL neostigmine bromide; Sigma-Aldrich, St. Louis, MO, USA) was also prepared in 100% MeOH. The stock solutions of the potential inhibitors and the positive and negative controls were added to the wells, and progressively diluted in 100 mM potassium phosphate buffer (pH 7.4) to the final volume of 50 μL. Then, 100 μL acetylthiocholine chloride (1 mM) and 5,5′-dithiobis-2-nitrobenzoic acid (0.5 mM) in 100 mM potassium phosphate buffer (pH 7.4) were added into the microtiter plate wells. Three ChEs were used as the enzyme sources: electric eel AChE (eeAChE); human recombinant AChE (hrAChE), and horse serum BChE (hsBChE) (all Sigma-Aldrich, St. Louis, MO, USA). These were dissolved in the same buffer to the final concentration of 0.0075 U/mL. Finally, 50 μL of each ChE solution was added into the microtiter plate wells to start the reaction, which was followed spectrophotometrically at 405 nm at 25 °C over 5 min using a kinetic microplate reader (Dynex Technologies Inc., Chantilly, VA, USA). The blank reactions without the inhibitors were run with the appropriate dilutions of the solvents in which the tested compounds were initially diluted (100% MeOH or 5% aqueous DMSO), and the readings were corrected according to the appropriate blanks. Each measurement was repeated at least three times. […] The data were analysed using the OriginPro software (OriginPro 2020, OriginLab Corporation, Northampton, MA, USA).

[7] = molecular target: T2, electric eel AChE (eeAChE); assay: Cholinesterase inhibition assay (modified Ellman method), eeAChE; type: biochemical; settings: for IC50: mean ± SEM of three independent measurements, / = No activity, read-out: Enzyme Inhibition eeAChE IC50; for type of inhibition of eeAChE: Dixon plots
Procedure: as §2

[8] = molecular target: T3, human placenta GST (hGST); assay: Glutathione S-transferase inhibition assay (Habig method), hGST; type: biochemical; settings: for IC50: mean ± SEM of three independent measurements, / = No activity, read-out: Enzyme Inhibition hGST IC50; for type of inhibition of hGST: Dixon plots; for Ki: determined for compounds with IC50 < 33 μM, substrate 200, 400, 800 μM, read-out: Enzyme Inhibition hGST Ki
Procedure: as §1

[9] = molecular target: T1, horse serum BChE (hsBChE); assay: Cholinesterase inhibition assay (modified Ellman method), hsBChE; type: biochemical; settings: for type of inhibition of hsBChE: Dixon plots; for IC50: mean ± SEM of three independent measurements, / = No activity, read-out: Enzyme Inhibition hsBChE IC50
Procedure: as §2

[10] = molecular target: T4, human recombinant AChE (hrAChE); settings: previously reported; read-out: Enzyme Inhibition hrAChE IC50; cited from earlier work

Compound	IC50 (horse liver GST (hlGST) [5]) [µM]	IC50 [6] [µM]	IC50 [7] [µM]	IC50 [8] [µM]	IC50 [9] [µM]	Ki (horse liver GST (hlGST) [5]) [µM]	further results
1-hydroxypyridine-2(1H)-thione [Complex L1]							IC50 (horse liver GST (hlGST) [1]): > 100 µM; IC50 [2]: > 100 µM; IC50 [3]: > 100 µM; IC50 [4]: > 100 µM
Cc1ccc(C(C)C)cc1.FC(F)(F)C1=[O+][Ru-]([P+]23CN4CN(CN(C4)C2)C3)[O]C(c2ccccc2Br)=C1.F[P-](F)(F)(F)(F)F [Complex 7, [RuCym(L2)pta]PF6]	> 100	> 100	> 100	> 100	19.2 ± 1.5		type of inhibition of hsBChE [9]: reversible and competitive; Ki ([9]; determined for compounds with IC50 < 33 μM, substrate 0.125, 0.25, 0.5 mM, read-out: Enzyme Inhibition hsBChE Ki): 9.26 µM
O=[C]=[Ru-2]12(=[C]=O)([O][n+]3ccccc3[S]1)[O][n+]1ccccc1[S]2 [Complex 8, [Ru(L1)2(CO)2]]		> 100	> 100	16.6 ± 1.4	> 100	0.85	type of inhibition of hlGST (horse liver GST (hlGST) [5]): reversible and competitive; type of inhibition of hGST [8]: reversible and competitive; Ki [8]: 9.65 µM
O=C(CC(=O)C(F)(F)F)c1ccccc1Br [Complex L2, 1-(2-bromophenyl)-4,4,4-trifluorobutane-1,3-dione, reference compound]	> 100	> 100	> 100	> 100	> 100		
CCCCCCCCCCCCCCCCCC(=O)CC(=O)c1ccccc1 [Complex L3, 1-phenylicosane-1,3-dione, reference compound]	> 100	> 100	> 100	> 100	> 100		
CN(C)C(=O)Oc1cccc([N+](C)(C)C)c1 [Neostigmine methylsulphate, reference compound]	> 100		5.98 ± 1	> 100	92.7 ± 2.2		
Cc1ccc(C(C)C)cc1.Cc1ccc(C(C)C)cc1.[Cl][Ru][Cl].[Cl][Ru][Cl] [Precursor 9, dichloro(p-cymene) ruthenium(II) dimer [Ru(p-cymene)Cl2]2]							IC50 (horse liver GST (hlGST) [1]): > 100 µM; IC50 [10]: > 100 µM; IC50 [2]: 32.7 ± 4.3 µM; IC50 [3]: > 100 µM; IC50 [4]: > 100 µM
[RuCym(L1)Br] [Complex 2]				4.64 ± 3.7		0.79	type of inhibition of hlGST (horse liver GST (hlGST) [5]): reversible and competitive; type of inhibition of hrAChE [6]: reversible and competitive; type of inhibition of eeAChE [7]: reversible and competitive; type of inhibition of hGST [8]: reversible and competitive; Ki [8]: 4.08 µM; type of inhibition of hsBChE [9]: reversible and competitive
[RuCym(L1)Cl] [Complex 1]							IC50 (horse liver GST (hlGST) [1]): 2.26 ± 0.5 µM; Ki (horse liver GST (hlGST) [1]; read-out: Enzyme Inhibition hlGST Ki): 10 µM; IC50 [4]: 45 ± 5.2 µM
[RuCym(L1)I] [Complex 3]				16 ± 3		1.6	type of inhibition of hlGST (horse liver GST (hlGST) [5]): reversible and competitive; type of inhibition of hrAChE [6]: reversible and competitive; type of inhibition of eeAChE [7]: reversible and competitive; type of inhibition of hGST [8]: reversible and competitive; Ki [8]: 8.6 µM; type of inhibition of hsBChE [9]: reversible and competitive
[RuCym(L1)pta]PF6 [Complex 6]	> 100						
tricarbonyldichlororuthenium(II) dimer [Ru(CO)3Cl2]2 [Precursor 10, reference compound]	9.76 ± 0.4			97.7 ± 1		2.93	inhibition of hGST (in words) [8]: only weakly
